According to patent publication US20140178461A1, “COMPOUNDS AND COMPOSITIONS FOR USE IN THE TREATMENT AND PREVENTION OF LUNG AND BRAIN CANCER AND PRECANCEROUS CONDITIONS THEREOF” (priority 2012, published 2014):
Where two headings read alike, the source gives them in different places. Values belong to the molecule of their own block, whether it stands above or below them.

Legend:
[1] = parameters: AUC in plasma: unit not given beside the values; settings: mouse, in vivo, inhaled or intranasal
in vivo = settings: mouse, ip, 58 mg/kg
U87 glioblastoma cells = assay: Apoptosis, Annexin V-FITC/PI staining by FACS; assay type: cell-based, human
[2] = Biodistribution of liposomal phospho-ibuprofen amide 1 in mice after i.v. administration; assay type: in vivo; settings: single 200 mg/kg i.v. dose, 1 h
[3] = tested on: A549 human non-small lung cancer cells; assay: Orthotopic A549-GFP lung tumor model in Ncr nude mice (efficacy of phospho-ibuprofen amide 1); assay type: in vivo; settings: 200 mg/kg once a week for 8 weeks; compound 1 liposomal; versus control
heart tissue = assay: Cardiotoxicity, histology of heart tissue sections from treated mice; settings: mice treated for about 1.5 months
[4] = tested on: A549 human non-small cell lung cancer cells; assay: Subcutaneous A549 xenograft in NOD SCID mice (efficacy of PTI 93); assay type: in vivo, mouse; settings: end of study, factoring in the 0 time value
Protocol: A549 human non-small cell lung cancer cells (1.5×10^5) were injected subcutaneously in the left and right flanks of 5-6-week-old female NOD SCID mice (Taconic Farms, Germantown, N.Y.). When the average tumor volume reached 100 mm^3, mice were treated by oral gavage of 10 or 15 mg/kg/day PTI 93 or vehicle (corn oil) for 2 weeks, when they were sacrificed and the tumors were harvested.

[5] = tested on: Salmonella Typhimurium (TA98 and TA100); assay: Genotoxicity, reverse mutations in Salmonella with and without rat liver S9; settings: strains TA98 and TA100, presence and absence of rat liver S9
[6] = Pharmacokinetics study of PTI 93 in mice (plasma levels); settings: single i.p. dose of 100 mg/kg PTI 93, mice
U87 cells = assay: Inhibition of glioblastoma cell line U87, 24-h growth inhibitory concentration; assay type: cell-based, human; settings: 24-hour growth inhibition

SMILES: CSc1ccc(/C=C2/C(C)=C(CC(=O)O)c3cc(F)ccc32)cc1 [Sulindac sulfide 131, sulindac sulfide]
AUC in plasma ([1]; BALB/c nude): 66.9
AUC in lung [1]: 18.9 nmol·h/g

SMILES: CCCC(CCC)C(=O)Oc1ccc(COP(=O)(OCC)OCC)cc1 [PV 116, Phosphovalproic Acid]
fold-increase of annexinV (+) cells (U87 glioblastoma cells): 3.0 fold

SMILES: CCOP(=O)(OCC)OCCCCNC(=O)C(C)c1ccc(CC(C)C)cc1 (stereo not shown) [phospho-ibuprofen amide 1, Phosphoric acid diethyl ester 4-[2-(4-isobutyl-phenyl)-propionylamino]-butyl ester]
biodistribution (drug concentration in blood and major organs) [2]: preferentially accumulated in lungs
reduction based on lung tumor weight (lung weight) [3]: 80%
reduction of lung cancer based on fluorescence [3]: 95%

SMILES: CCOP(=O)(OCC)OCCc1ccc(OC(=O)Cc2c(C)n(C(=O)c3ccc(Cl)cc3)c3ccc(OC)cc23)cc1 [PTI 93, [1-(4-Chloro-benzoyl)-5-methoxy-2-methyl-1H-indol-3-yl]-acetic acid 4-[2-(diethoxy-phosphoryloxy)-ethyl]-phenyl ester]
cardiotoxicity (histology, treated versus healthy control mice) (heart tissue): no differences
reduction of tumor volume ([4]; 10 mg/kg/day oral gavage for 2 weeks): 85%
reduction of tumor volume ([4]; 15 mg/kg/day oral gavage for 2 weeks): 96%
genotoxicity (reverse mutations) [5]: no genotoxicity
time of maximum plasma concentration of intact PTI [6]: 2 h
plasma level of intact PTI 4 hours post administration ([6]; 4 hours): undetectable

Other lines, results leading:

AUC(0-t) (in vivo): 500 µM·h
Cmax (in vivo): 127 µM
SMILES: COc1ccc2c(c1)c(CC(=O)O)c(C)n2C(=O)c1ccc(Cl)cc1 [indomethacin 127, indomethacin]

AUC in plasma ([1]; BALB/c nude): 142.4
Cmax ([1]; BALB/c nude): 10.4 µM
Tmax in lung ([1]; BALB/c nude): 8 h
Tmax in plasma ([1]; BALB/c nude): 8 h
AUC in lung [1]: 57.5 nmol·h/g
Cmax in lung [1]: 4.6 nmol/g
SMILES: CC1=C(CC(=O)O)c2cc(F)ccc2/C1=C\c1ccc(S(C)(=O)=O)cc1 [Sulindac sulfone 132, sulindac sulfone]

AUC in lung [1]: 30.1 nmol·h/g
AUC in plasma [1]: 49.5
Tmax in lung [1]: 0 h
Tmax in plasma [1]: 0 h
IC50 (U87 cells): ≥ 1 mM
SMILES: CC1=C(CC(=O)O)c2cc(F)ccc2/C1=C\c1ccc([S+](C)[O-])cc1 (stereo not shown) [Sulindac, sulindac]
